# Source: publication PMC3587680 (European journal of medicinal chemistry, 2012)
# Columns and labels:
# [1] = molecular target: T1, recombinant human thymidine kinase 1 (hTK1) (Homo sapiens, UniProt P04183); settings: PTA conditions
# T1 sequence (P04183 1-234): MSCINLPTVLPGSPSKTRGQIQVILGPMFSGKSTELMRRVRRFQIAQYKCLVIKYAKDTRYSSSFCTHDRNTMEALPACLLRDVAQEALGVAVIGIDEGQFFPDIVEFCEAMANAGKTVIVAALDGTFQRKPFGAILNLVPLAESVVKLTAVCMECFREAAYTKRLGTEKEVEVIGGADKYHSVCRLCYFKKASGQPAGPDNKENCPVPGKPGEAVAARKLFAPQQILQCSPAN
# [2] = Thermodynamic solubility in PBS; format: physicochemical; settings: PBS pH 7.4, 25 °C
# [3] = molecular target: T1, recombinant human thymidine kinase 1 (hTK1); settings: for kcat ± SD: apparent, varying substrate concentrations, 100 μM ATP, three replicates; for rkcat/Km (kcat/Km relative to that of dThd): current recombinant hTK1 preparation (specific activity 441 nmol/min/mg)
# intracranial RG2 glioma = settings: rats bearing intracranial RG2 glioma, cited from earlier work
# L929 TK (+) cells = settings: cited from earlier work
# [4] = molecular target: T1, recombinant human thymidine kinase 1 (hTK1); settings: different hTK1 enzyme preparation, previous study; cited from earlier work
Substance,Solubility in PBS pH 7.4 [2],kcat ± SD [3] [S^-1],rkcat/Km (kcat/Km relative to that of dThd) [3] [%],"Stability under phosphoryl transfer assay conditions (phosphorylated side products, dTMP) [1]",Boron concentration in tumor relative to normal brain (intracranial RG2 glioma) [fold],Boron concentration in normal brain (intracranial RG2 glioma; normal brain) [μg B/g tumor],Boron concentration in tumor (intracranial RG2 glioma; tumor) [μg B/g tumor],In vitro uptake in L929 TK (+) cells relative to L929 TK (−) cells (L929 TK (+) cells),rkcat/Km [4] [%]
"3-[1(2)-closo-1,7-Carboranylbutyltetrazol-5-ylmethyl]thymidine [9d1/2]",33.9 ± 1.4 |g/mL,0.47 ± 0.04,8.9,–,–,–,–,–,–
"3-[1(2)-closo-1,7-Carboranylbutyltetrazol-5-yl]thymidine [11d1/2]",13.3 - 13.8 |g/mL ^*,0.32 ± 0.02,19.7,–,–,–,–,–,–
"3-[1(2)-closo-1,7-Carboranylethyltetrazol-5-yl]thymidine [11b1/2]",42.6 ± 1.0 |g/mL,0.35 ± 0.03,–,–,–,–,–,–,–
"3-[1(2)-closo-1,7-Carboranylethyltetrazol-5-ylmethyl]thymidine [9b1/2]",133.1 ± 5.2 |g/mL,0.44 ± 0.03,14.9,–,–,–,–,–,–
"3-[1(2)-closo-1,7-Carboranylpropyltetrazol-5-yl]thymidine [11c1/2]",25.4 - 26.3 |g/mL^2,0.37 ± 0.06,5.0,–,–,–,–,–,–

# The next lines start with results.
Solubility in PBS pH 7.4 [2],kcat ± SD [3] [S^-1],rkcat/Km (kcat/Km relative to that of dThd) [3] [%],Substance,"Stability under phosphoryl transfer assay conditions (phosphorylated side products, dTMP) [1]",Boron concentration in tumor relative to normal brain (intracranial RG2 glioma) [fold],Boron concentration in normal brain (intracranial RG2 glioma; normal brain) [μg B/g tumor],Boron concentration in tumor (intracranial RG2 glioma; tumor) [μg B/g tumor],In vitro uptake in L929 TK (+) cells relative to L929 TK (−) cells (L929 TK (+) cells),rkcat/Km [4] [%]
>15 mg/mL,–,–,"3-[2-Imino-2-{3-(closo-1,7-carboranyl)propylamino}ethyl]thymidine [Compound 3f]",did not appear to produce significant amounts of dTMP as a side product,–,–,–,–,–
>19.5 mg/mL,–,–,"3-[2-Imino-2-{2-(closo-1,7-carboranyl)ethylamino}ethyl]thymidine [Compound 3e]",did not appear to produce significant amounts of dTMP as a side product,–,–,–,–,–
7-10 |g/mL,0.42 ± 0.03,10.8,"3-[5-{2-(2,3-dihydroxyprop-1-yl)-o-carboran-1-yl}pentan-1-yl]thymidine [Compound N5-2OH]",–,10,2.6,27.6,5-10 fold,35.8
84.2 ± 4.1 |g/mL,0.39 ± 0.04,7.6,"3-[1(2)-closo-1,7-Carboranylpropyltetrazol-5-ylmethyl]thymidine [9c1/2]",–,–,–,–,–,–
